Measurements as given in patent US12679838B2, “Aromatic compound and application thereof in antitumor drug” (Shanghai Zheye Biotechnology Co., Ltd., priority 2020, dated 2026).
Read-outs that look alike come from different tables or passages of the source.

Columns and labels:
[1] = test system: NCI-H358 tumor cells xenograft; assay: Pharmacodynamics test of xenograft tumor model of NCI-H358 in nude mice; assay type: in vivo, Balb/c Nude mice; conditions: 100 mg/kg; for Tumor suppression ratio (%): NCI-H358 xenograft, QD×15 days, oral gavage
Method: Animal species and number: Balb/c Nude; 6 animals per group.
Samples for testing: compound 3-2M, compound 3-16M, TM-1, TM-3, and AMG510 (obtained by purchasing).
Test groups: blank solvent control group; compound 3-2M (100 mg/kg, QD×15 days), compound 3-16M (100 mg/kg, QD×15 days), TM-1 (100 mg/kg, QD×15 days), TM-3 (100 mg/kg, QD×15 days); and AMG510 (100 mg/kg, QD×15 days).
Animal model establishment: NCI-H358 tumor cells at logarithmic phase were cultured and collected in vitro, and inoculated subcutaneously on the right side of the back of nude mice at a quantity of 5×10^6 cells/each, and the tumor-bearing nude mice were randomly grouped when the tumor volume grew to 150-300 mm^3. Subsequently, each group of animals was administered and the day of the first administration was defined as day 1 of the test.
(§1) Administration route and frequency: oral gavage; and once a day.
(§2) General state observation: observation time and frequency: once a day; observation index or content: including, but is not limited to local administration, appearance and signs, general behavioral activities, mental status, death and other abnormal manifestations of the animals. The animals were euthanized at the end of the test.
(§3) Tumor volume calculation: V=½×long diameter× short diameter^2 (mm^3). Tumor growth inhibition ratio TGI (%) was used to evaluate the tumor suppressive efficacy of the compounds. TGI (%)=[1-(mean tumor volume at the end of administration of the treatment group−mean tumor volume at the beginning of administration of the treatment group)/(mean tumor volume at the end of administration of the control group−mean tumor volume at the beginning of administration of the control group)]×100%.

[2] = Two-week repeated dosing safety test; assay type: in vivo; conditions: SD rats, 400 mg/kg oral gavage once a day, 14 days
Method: Samples for testing: compound 3-29; compound 3-16M; and compound 3-32.
Animal species and number: SD rats; 6 rats per group (half male and half female).
(§4) Mode of administration: oral gavage.
Animal grouping and administration dose: solvent blank group and compound 3-29 group (400 mg/kg); compound 3-16M group (400 mg/kg); and compound 3-32 group (400 mg/kg).
Administration frequency: once a day, and administration for 14 days.
After administration, a toxic reaction was observed by cages for 4 hours, and detailed clinical observation was made on animals with obvious abnormal performances. General clinical observation included twice a day during the duration of test (once in the morning and once in the afternoon). Death, morbidity, respiration, secretion, faeces, diet, drinking water, and other conditions were observed and weight changes of the rats during administration were recorded. Detailed clinical observations included but were not limited to behavioral activity, skin, coat, eyes, ears, nose, abdomen, external genitals, anus, extremities, feet, and respiration. After the administration, the animals in each group were euthanized, and all the animals were dissected and observed grossly.

[3] = test system: NCI-H358; assay: Cell proliferation inhibitory activity of NCI-H358, 3D model test (agarose colony formation); assay type: cell-based; conditions: for IC50: Homo sapiens, NCI-H358, agarose gel, colony formation, NBT staining
Method: 100 μl of high concentration agarose gel was spread in a 96-well plate as a bottom agarose gel layer; low concentration agarose and growth medium containing cells were mixed and spread on the bottom agarose gel layer, cooled and solidified and incubated overnight at 37° C.; a test compound was prepared into a mother liquor with DMSO, diluted with a RPMI 1640 growth medium in a concentration gradient, and the gradient diluted solution of the compound to be tested with different concentrations was added into 96 wells containing upper agarose gel cells, and solvent control wells were set and placed in a carbon dioxide incubator for culture. During the period, the drug-containing medium was changed to observe the cell growth. After the culture, the cells were stained with NBT, the number of colony formation was counted, and the IC50 value of the compound inhibiting cell proliferation was obtained.

[4] = test system: NCI-H358 cells; assay: Cell proliferation inhibitory activity, NCI-H358 (CellTiter-Glo); assay type: cell-based; conditions: for cell proliferation inhibitory activity, R-configuration compared with corresponding S-configuration compound (in words): H358
Method: (§5) NCI-H358 cells in an exponential growth phase were digested with trypsin-EDTA and plated in a 96-well plate at 2000-3000 cells per well and incubated overnight at 37° C. with 5% CO2. A test compound was prepared as a mother liquor with DMSO, diluted with a RPMI 1640 growth medium in a concentration gradient and added to the 96-well plate and incubated for 72 hours at 37° C. in a 5% CO2 incubator. After incubation, an equal volume of CellTiter-Glo detection reagent was added to each well and incubated after shaking, and a chemiluminescence value was measured by a microplate reader, and the IC50 value for the inhibition of NCI-H358 cell proliferation was fitted and calculated by GraphPad Prism software.
The inhibitory effect of the compounds on the proliferation activity of H358 cells was tested with reference to the method of the biological test 2, and the results were as follows:
The inhibitory effect of the compounds on the proliferation activity of NCI-H358 cells was tested with reference to the method of the biological test 2, and the results were as follows.

[5] = target: T1, hERG potassium channel (Homo sapiens, UniProt Q12809); assay: hERG potassium channels, electrophysiological manual patch clamp; assay type: cell-based
T1 construct: expressed in transfected cells; host or cells: HEK-293
T1 sequence (Q12809 whole entry): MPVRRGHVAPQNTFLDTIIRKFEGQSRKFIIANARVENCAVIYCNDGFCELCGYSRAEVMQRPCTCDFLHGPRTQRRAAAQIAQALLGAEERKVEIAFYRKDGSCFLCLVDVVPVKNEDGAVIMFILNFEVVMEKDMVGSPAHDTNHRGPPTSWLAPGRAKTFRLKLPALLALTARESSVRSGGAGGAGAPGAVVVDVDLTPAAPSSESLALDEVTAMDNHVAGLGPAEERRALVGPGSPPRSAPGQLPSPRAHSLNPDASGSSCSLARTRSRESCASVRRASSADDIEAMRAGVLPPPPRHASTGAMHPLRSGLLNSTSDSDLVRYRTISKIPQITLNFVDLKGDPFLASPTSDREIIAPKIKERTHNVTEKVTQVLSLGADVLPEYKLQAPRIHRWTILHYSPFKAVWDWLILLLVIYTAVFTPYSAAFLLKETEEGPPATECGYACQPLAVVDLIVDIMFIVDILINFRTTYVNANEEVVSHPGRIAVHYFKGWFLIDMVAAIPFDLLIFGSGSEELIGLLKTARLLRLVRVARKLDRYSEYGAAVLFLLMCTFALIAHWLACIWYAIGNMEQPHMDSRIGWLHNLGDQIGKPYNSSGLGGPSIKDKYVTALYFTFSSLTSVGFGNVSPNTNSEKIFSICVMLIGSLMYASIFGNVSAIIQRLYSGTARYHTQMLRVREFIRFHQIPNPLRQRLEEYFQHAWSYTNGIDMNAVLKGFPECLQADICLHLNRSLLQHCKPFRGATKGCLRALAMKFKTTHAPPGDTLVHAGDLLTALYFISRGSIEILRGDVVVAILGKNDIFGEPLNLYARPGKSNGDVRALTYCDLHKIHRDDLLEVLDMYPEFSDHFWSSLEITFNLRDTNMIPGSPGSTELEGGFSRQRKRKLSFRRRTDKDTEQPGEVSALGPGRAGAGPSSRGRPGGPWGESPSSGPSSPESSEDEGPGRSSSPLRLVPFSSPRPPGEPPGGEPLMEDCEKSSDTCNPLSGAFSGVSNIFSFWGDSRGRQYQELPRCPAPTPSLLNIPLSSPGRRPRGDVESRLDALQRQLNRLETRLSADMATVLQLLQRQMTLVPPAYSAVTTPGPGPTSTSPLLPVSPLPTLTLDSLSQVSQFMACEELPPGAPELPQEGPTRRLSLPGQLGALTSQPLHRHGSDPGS
Method: Preparation of test solution: the solution of test compound 3-16M was subjected to conventional ultrasound and oscillation to ensure complete dissolution of the compound.
Cell culture: the cell lines were derived from HEK-293 cells which overexpressed hERG potassium channel. The cells were cultured in a 5% CO2 incubator at 37°. When a cell density reached 80% of a culture dish, the cells were pre-washed with a phosphate buffer solution (PBS), and then digested with trypsin/EDTA, and a cell culture medium was added to stop digestion. The cells were gently blown with a pipette and transferred to a centrifuge tube, centrifuged at 1000 rpm, the supernatant was poured out, and then the cell culture medium was added. The cells were gently blown and mixed evenly, then transferred to a culture dish for subculture, or the cells were dripped on a round slide and placed in a culture dish for the cells to adhere to the wall for test.
The hERG IC50 value of the compound calculated by electrophysiology manual patch clamp system test was as follows: […]

[6] = test system: MIA-paca-2 cells subcutaneous transplanted tumor; assay: Pharmacodynamic test of CDX model in nude mice; assay type: in vivo; conditions: 10 mg/kg, QD×15 days
Method: Animal species and number: Balb/c Nude.
Test groups: blank solvent control group; compound 3-2M (10 mg/kg, QD×15 days), and compound 3-6M (10 mg/kg, QD×15 days).
Animal model establishment: MIA-paca-2 cells were cultured in vitro and inoculated subcutaneously on the right side of the back of nude mice, and the tumor-bearing nude mice were randomly grouped. Subsequently, each group of animals was administered and the day of the first administration was defined as day 1 of the test.
as §1
as §2, with “but” for “but is”
as §3, with “diameter×short” for “diameter× short”

[7] = test system: MIA PaCa-2 cells; assay: Cell proliferation inhibitory activity, MIA PaCa-2 (CellTiter-Glo); assay type: cell-based
Method: as §5, with “MIA PaCa-2” for “NCI-H358”, “DMEM” for “RPMI 1640”

[8] = Preliminary safety test of compounds, 3-day oral gavage; conditions: mouse, in vivo, Balb/c, tentatively suggested, read-out: maximum tolerated dose
Method: Samples for testing: compound 3-2M and compound 3-6M.
Animal species and number: Balb/c; 3 animals per group.
as §4
Animal grouping and administration dose: solvent blank group and compound 3-2M group (400 mg/kg, 800 mg/kg); compound 3-6M group (400 mg/kg, 800 mg/kg).
Administration frequency: once a day, and administration for 3 days.

[9] = Analysis of therapeutic safety window; conditions: in vivo, oral, 3 days
[10] = test system: Langendorff isolated perfused heart; assay: In vitro isolated heart perfusion test (Langendorff); parameters: species or system Guinea pig; conditions: 3.3 μM
Text: Test method: influences of Langendorff isolated perfused heart test compounds on electrocardiogram, wherein the test method used in this test was as follows: [table] Test compounds: compound 3-2M and the compound in Example 41 of patent WO2018217651A1 (i.e., AMG510).

[11] = Homo sapiens, NCI-H358, 72 h, biological test 2, NCI-H358 cells, 72 hours, read-out: Cell proliferation inhibitory activity IC50 value of H358

Row | Structure (SMILES) | inhibition of subcutaneous transplanted tumor growth of lung cancer NCI-H358 cells in nude mice (in words) [1] | Tumor suppression ratio (%) [1] | general observation: water intake, feeding, activity, body weight [2] | cell proliferation inhibitory activity against NCI-H358, 3D model (in words) [3] | IC50 [3] [nM] | cell proliferation inhibitory activity against KRAS G12C mutant cells NCI-H358 (in words) [4] | IC50 [4, 11] [nM] | inhibition of subcutaneous transplanted tumor growth of pancreatic cancer MIA-paca-2 cells in nude mice (in words) [6] | toxicity during administration in CDX test (food and water intake, activities, weight) [6] | MTD at 3 days [8] [mg/kg] | therapeutic safety window: ratio of toxic dose to onset dose [9] | cell proliferation inhibitory activity, R-configuration compared with corresponding S-configuration compound (in words) [4] | other results
1 | [2H]C(=O)c1ccccc1-c1nc2c(cc1Cl)c(N1CCN(C(=O)C=C)C[C@@H]1C)nc(=O)n2-c1c(C)ccnc1C(C)C (atropisomer, axis not shown) [Compound 3-16M] | significant inhibitory effects | ++++ (“++++” represents that the tumor suppression ratio is greater than 140%) | no obvious abnormal performance | significant cell proliferation inhibitory activities | 1.1 | significant cell proliferation inhibitory activities | ≤ 50 | – | – | – | – | – | IC50 ([5]; HEK-293 cells overexpressing hERG): > 100000 nM; IC50 ([5]; human, HEK-293 cells overexpressing hERG potassium channel, test concentration range): > 100000 nM
2 | C=CC(=O)N1CCN(c2nc(=O)n(-c3c(C)ccnc3C(C)C)c3nc(-c4c(F)cccc4C=O)c(Cl)cc23)[C@@H](C)C1 (single isomer, unassigned) [Compound 3-6M] | – | – | – | – | – | significant cell proliferation inhibitory activities | ≤ 50 | significant inhibition of subcutaneous transplanted tumor growth | showed no toxicity | > 800 | greater than 80 times | significantly better than that of the corresponding compound 3-6P | cell proliferation inhibitory activity against KRAS G12C mutant cells MIA PaCa-2 (in words) [7]: significant cell proliferation inhibitory activities; IC50 ([7]; Homo sapiens, MIA PaCa-2 cells, 72 hours): < 50 nM
3 | C=CC(=O)N1CCN(c2nc(=O)n(-c3c(CN(C)C)ccnc3C(C)C)c3nc(-c4ccccc4C=O)c(Cl)cc23)[C@@H](C)C1 [Compound 3-32] | – | – | no obvious abnormal performance | – | – | significant cell proliferation inhibitory activities | – | – | – | – | – | – | IC50 ([4]; Homo sapiens, NCI-H358, biological test 7, NCI-H358 cells, read-out: Cell proliferation inhibitory activity IC50 value of NCI-H358): < 50 nM
4 | C=CC(=O)N1CCN(c2nc(=O)n(-c3c(C)ccnc3C(C)C)c3nc(-c4ccccc4C=O)c(Cl)cc23)[C@@H](C)C1 [Compound 3-2M] | significant inhibitory effects | ++++ (“++++” represents that the tumor suppression ratio is greater than 140%) | – | significant cell proliferation inhibitory activities | 1.8 | – | – | significant inhibition of subcutaneous transplanted tumor growth | showed no toxicity | > 800 | greater than 80 times | significantly better than that of the corresponding compound 3-2P | effect on the heart rate of the isolated heart (in words) [10]: no obvious effect on the heart rate; HR (heart rate) change % ([10]; Guinea pig isolated heart): A (“A” represents that the heart rate decreases by less than 5%); cell proliferation inhibitory activity against H358, R-configuration relative to S-configuration compound (fold) ([4]; 3-2M versus 3-2P): more than five times; IC50 ([4]; biological test 2, NCI-H358 cells, 72 hours, read-out: Cell proliferation inhibitory activity IC50 value of H358): ≤ 50 nM
5 | C=CC(=O)N1CCN(c2nc(=O)n(-c3c(CF)ccnc3C(C)C)c3nc(-c4ccccc4C=O)c(Cl)cc23)[C@@H](C)C1 [Compound 3-29] | – | – | no obvious abnormal performance | – | – | significant cell proliferation inhibitory activities | – | – | – | – | – | – | IC50 ([4]; Homo sapiens, biological test 7, NCI-H358 cells, read-out: Cell proliferation inhibitory activity IC50 value of NCI-H358): < 50 nM
